In brackets after ≈: the same amount, converted by molar mass. Like-named read-outs stand apart in the source and are kept apart here.
How the values were obtained:
[1] = system: M. tuberculosis (H37Rv); assay: microbe, parasite or virus in culture; assay type: cell-based, Mycobacterium tuberculosis
[2] = system: Vero cells; assay: In vitro cytotoxicity to mammalian cells (neutral red)
[3] = system: P. berghei; assay: In vivo antimalarial activity in P. berghei-infected mice; design: species or system Plasmodium berghei; conditions: for reduction of parasitemia: single i.p. 100 μmoles/kg, comparison 2 days after treatment
Protocol: In Vivo Evaluation of Antimalarial Activity. (National University of Singapore by Dr. Kenny Ang, confirmation of activity at the WHO). Four-week-old, male Swiss albino mice are injected intraperitoneally with 10^7 P. berghei-infected mouse erythrocytes. On day 2 after infection, mice are treated with a single intraperitoneal injection of either the test compound or a reference drug (chloroquine or artemisinin) within a concentration range of 50 to 1,000 μmol/kg of body weight. All test compounds and reference drugs were injected as a suspension in 5% Tween 60 saline. For oral administration, the test compounds are given as a suspension in corn oil, and mice are given two consecutive doses of test compound at 100 μmol/kg on days 2 and 3 after infection. […] Control mice receive only 5% Tween 60 saline or corn oil. Survival of mice was recorded daily. Percent parasitemia is determined microscopically (magnification, ×1,000) from mouse-tail blood smears that were fixed with methanol and stained with Giemsa stain. Blood samples from individual P. berghei-infected mice were collected at various times after a single intraperitoneal treatment of 100 μmol/kg of manzamine A per kg on day 3 after infection. For transmission electron microscopy, approximately 0.5-ml blood samples are fixed with 3% glutaraldehyde in 0.1 M cacodylate buffer (pH 7.4), postfixed with 1% osmium tetroxide and 1% uranyl acetate, dehydrated in a graded ethanol series, and embedded in Spurr's resin. The resulting blocks are cut by using a Reichert-Jung Ultracut with a glass knife. Ultra thin sections were mounted on 150-mesh copper grids, stained with 1% uranyl acetate and 1% lead citrate, and examined with a JEM-100CX electron microscope. Manzamine in plasma was detected by liquid chromatography=selected reaction monitoring-mass spectrometry (LC-SRM-MS). P. berghei-infected mice will be treated with the alkaloid (100 μmol/kg intraperitoneally) on day 3 post infection. Blood samples are collected from individual mice at specific times up to 48 h posttreatment. Plasma was isolated by centrifugation and extracted with 95% acetonitrile containing 5 mM ammonium acetate. The plasma extract was filtered, and 5 μl samples are injected into a Shimadzu LC-10 AD microbore high-pressure liquid chromatograph interfaced with a Perkin-Elmer API 300 turbo-ion-spray tandem mass spectrometer. Samples are separated on a Prodigy C-18 column (30 by 1 mm, 5-μm inner diameter) by elution at 50 μl/min with 86% acetonitrile containing 5 mM ammonium acetate. Manzamine can be detected by monitoring the transition of the protonated manzamine precursor ion from the (M+H)^+ to the (M+H —H2O)^+. Peak areas for the product ion chromatograms are integrated, and concentrations are determined from a linear calibration curve for manzamine in spiked plasma. The limit of detection for the manzamines in plasma by LC-SRM-MS is 2.5 pg. Results are subjected to a nonparametric statistical assessment with a confidence interval of 99% (p<0.01) by using Analyse-it software linked to Microsoft Excel. The program uses the Mann-Whitney U test to determine significant differences between two groups of data.

[4] = system: P. falciparum D6 clone (Sierra Leone, chloroquine-sensitive); assay: In vitro antimalarial activity, parasite LDH assay, D6 clone; assay type: cell-based, Plasmodium falciparum; conditions: for IC50: Plasmodium falciparum
[5] = system: P. falciparum W2 clone (Indochina, chloroquine-resistant); assay: In vitro antimalarial activity, parasite LDH assay, W2 clone; assay type: cell-based, Plasmodium falciparum; conditions: for IC50: Plasmodium falciparum
[6] = system: HIV-1 in human PBM cells; assay: Anti-HIV activity in human PBM cells; assay type: cell-based
[7] = system: human PBM cells; assay: Cytotoxicity in human PBM cells; conditions: read-out: Cytotoxicity in human PBM cells IC50
[8] = Cytotoxicity of microbial metabolites versus parent compounds (cells not stated); assay type: cell-based
[9] = system: P-388 mouse lymphoma cells; assay: Cytotoxicity against P-388 mouse lymphoma cells; assay type: cell-based
[10] = system: human lung and colon carcinoma cells; conditions: cited from earlier work
[11] = system: P. berghei N strain; assay: Oral antimalarial activity against P. berghei N strain; assay type: in vivo, Plasmodium berghei; conditions: orally in DMSO, preliminary results
[12] = system: Vero cells; conditions: African green monkey, 48 h
[13] = Cytotoxicity against human lung and colon carcinoma cells; assay type: cell-based
[14] = system: T. gondii (C56 strain); assay: Survival of mice infected orally with T. gondii cysts; assay type: in vivo, Toxoplasma gondii
Source text: Toxoplasma gondii. […] Untreated infected mice in the control group started dying 10 days post infection. Mice treated with manzamine A died nine days after treatment stopped. […] FIGS. 1 and 2 provide the graphic results of this experiment. […] Treatment was begun on Day 1 following in infection and continued for 8 days.

[15] = Cytotoxicity in human PBM cells; conditions: human
[16] = system: P. berghei; assay: In vivo antimalarial activity in P. berghei-infected mice; design: species or system Plasmodium berghei; conditions: three 50 μmoles/kg i.p. doses
[17] = system: Plasmodium yoelii NS malaria strain; assay: WHO Peters 4-day assay, Plasmodium yoelii NS in mice; assay type: in vivo
Source text: To confirm the activity of the manzamines against malaria the World Health Organization examined manzamine A against the Plasmodium yoelii NS malaria strain in mice (Peters 4-day assay-Handbook of Animal Models of Infection Chapter 92, Academic Press 1999).

[18] = system: P-388 mouse lymphoma cells; conditions: cited from earlier work
[19] = M. tuberculosis H37Rv, test concentration not given
[20] = P. falciparum W2 clone, read-out: W2 Clone IC50
[21] = P. berghei-infected mice, single i.p. dose 100 μmoles/kg
[22] = Mycobacterium tuberculosis, M. tuberculosis H37Rv, read-out: MIC

Compound: Manzamine L
- MIC ([1]; M. tuberculosis H37Rv): <12.5 µg/mL
- % Inhibition [1, 19]: 99%

Compound: O[C@]12C=C(c3nccc4c3[nH]c3ccccc34)C3CCN(CCCC/C=C\CC1)C[C@@]31C[C@]34CC[C@H](CCCN3[C@H]12)O4 (some centres unmarked) [6-Deoxymanzamine X, 6-deoxymanzamine X]
- MIC ([1]; M. tuberculosis H37Rv): <12.5 µg/mL
- % Inhibition [1, 19]: 98%

Compound: CCN(CC)CCCC(C)Nc1ccnc2cc(Cl)ccc12 (centres unmarked) [Chloroquine, chloroquine, reference compound]
- Cytotoxicity TC50 [2]: >5,000 ng/mL
- reduction of parasitemia ([3]; P. berghei-infected mice): comparable reduction of parasitemia
- average survival days ([3]; in vivo, ip): 6 days
- IC50 ([4]; D6, read-out: D6 Clone IC50): 0.0155 µg/mL (≈ 0.0485 µM)
- IC50 [5, 20]: 170 ng/mL (≈ 0.531 µM)

Compound: 15,16,32,33-tetrahydro-ent-8-hydroxymanzamine A
- MIC ([1]; M. tuberculosis H37Rv): <6.25 µg/mL
- % Inhibition [1, 19]: 100%

Compound: O=CC1=C[C@@]2(O)CC/C=C\CCCCN3CC[C@@H]1[C@]1(CC4/C=C\CCCCN4[C@H]12)C3 (some centres unmarked) [Ircinal A]
- MIC ([1]; M. tuberculosis H37Rv): <12.5 µg/mL
- % Inhibition [1, 19]: 98%
- EC50 ([6]; human PBM cells): 45.2 µM
- activity in vivo against malaria ([3]; mice): failed to show any activity in vivo against malaria
- IC50 [7]: 34.2 µM
- cytotoxicity relative to the parent compounds [8]: less cytotoxic than the parent compounds

Compound: ent-8-hydroxy-manzamine A [ent-8-Hydroxymanzamine A]
- MIC ([1]; M. tuberculosis H37Rv): 3.13 µg/mL
- % Inhibition [1, 19]: 99%
- EC50 ([6]; human PBM cells): 44.2 µM
- reduction of parasitemia ([3]; P. berghei-infected mice): efficiently reduced parasitemia
- average survival days [3, 21]: 9 to 11 days
- in vivo activity against P. berghei relative to chloroquine or artemisinin ([3]; mice): in vivo activity against P. berghei greater than chloroquine or artemisinin
- cytotoxicity IC50 [9]: 0.25 µg/mL
- IC50 [7]: 4.9 µM

Compound: O=C1CCCN2[C@@H](CC1)C[C@]13CN4CCCC/C=C\CC[C@](O)(C=C(c5nccc6c5[nH]c5c(O)cccc56)C1CC4)[C@H]23 (stereo partly drawn) [ent-Manzamine F, ent-manzamine F]
- MIC ([1]; M. tuberculosis H37Rv): >12.5 µg/mL
- EC50 ([6]; human PBM cells): 94.8 µM
- IC50 [7]: 40.8 µM

Compound: O=C1CCCN2[C@@H](CC1)C[C@]13CN4CCCC/C=C\CC[C@](O)(C=C(c5nccc6c5[nH]c5ccccc56)[C@@H]1CC4)[C@H]23 [Manzamine E]
- MIC ([1]; M. tuberculosis H37Rv): 3.13 µg/mL (≈ 5.54 µM)
- % Inhibition [1, 19]: 99%
- EC50 ([6]; human PBM cells): 18.7 µM
- IC50 [7]: 35.5 µM

Compound: (−)-12, 34-Oxamanzamine F
- EC50 ([6]; human PBM cells): 20.4 µM
- IC50 [7]: 75.2 µM

Compound: kauluamine
- cytotoxicity [10]: inactive

Compound: 8-hydroxymanzamine
- ED50 [11]: < 10 mg/kg

Compound: C[C@@H]1CC[C@H]2[C@@H](C)C(=O)O[C@@H]3O[C@@]4(C)CC[C@@H]1[C@]32OO4 [Artemisinin, artemisinin, reference compound]
- average survival days [3, 21]: 2 to 3 days
- IC50 ([4]; P. falciparum D6 clone, read-out: D6 Clone IC50): 0.01 µg/mL (≈ 0.0354 µM)
- IC50 [5, 20]: 6.3 ng/mL (≈ 0.0223 µM)
- Cytotoxicity TC50 [12]: >5,000 ng/mL

Compound: O[C@@H]1CCCN2CC[C@@H]1O[C@@]13CC[C@@H](OC[C@]45CN6CCCC/C=C\CC[C@](O)(C=C(c7nccc8c7[nH]c7ccccc78)[C@@H]4CC6)[C@H]25)[C@@H](O)CCN1[C@@H]1[C@]2(CN4CCCC/C=C\CC[C@]1(O)C=C(c1nccc5c1[nH]c1ccccc15)[C@@H]2CC4)C3 [neo-Kauluamine, neo-kauluamine]
- % Inhibition [1, 19]: 44%
- MIC [1, 22]: > 12.5 µg/mL
- IC50 [13]: 1 µg/mL (≈ 0.859 µM)

Compound: O[C@]12C=C(c3nccc4c3[nH]c3ccccc34)[C@@H]3CCN(CCCC/C=C\CC1)C[C@@]31C[C@@H]3/C=C\CCCCN3[C@@H]12 [Manzamine A]
- % Inhibition [1, 19]: 99%
- MIC [1, 22]: 1.56 µg/mL (≈ 2.84 µM)
- Cytotoxicity TC50 [2]: 290 ng/mL
- EC50 ([6]; Human immunodeficiency virus 1, PBMC): 12.9 µM
- reduction of parasitemia ([3]; P. berghei-infected mice): comparable reduction of parasitemia
- reduction of parasitemia compared with control mice ([3]; P. berghei-infected mice, two oral doses 100 μmoles/kg): 90%
- in vivo activity against P. berghei relative to chloroquine or artemisinin ([3]; mice): in vivo activity against P. berghei greater than chloroquine or artemisinin
- time of death after treatment stopped ([14]; 8 mg/kg i.p. once a day for 8 days): nine
- signs or behavior during treatment ([14]; 8 mg/kg i.p. once a day for 8 days (paralysis, blindness, twirling)): no uncommon signs or behavior
- survival at day 16 of infection ([14]; 8 mg/kg i.p. once a day for 8 days, all control mice had died by day 16): all the manzamine A treated mice were alive
- time to death ([14]; SW mice, 10 cysts C56 orally, 8 mg/kg i.p. once a day for 8 days from day 1): significant prolongation of time to death
- IC50 ([4]; D6, read-out: D6 Clone IC50): 0.0045 µg/mL (≈ 0.0082 µM)
- Selectivity index (SI), D6 clone ([4]; Vero TC50 relative to D6 IC50): SI = 64
- IC50 ([5]; W2, read-out: W2 Clone IC50): 8 ng/mL (≈ 0.0146 µM)
- Selectivity index (SI), W2 clone ([5]; Vero TC50 relative to W2 IC50): SI = 36
- IC50 [15]: 5.1 µM
- outcome after three doses [16]: curative and totally clears the parasite
- ED50 ([17]; Plasmodium yoelii, 96 h): < 5 mg/kg
- activity relative to Na artesunate ([17]; given orally in DMSO or carboxy-methylcellulose-based formulation): more active than Na artesunate

Compound: 8,12-di-O-acetyl ent-8-hydroxymanzamine A [ent-8-Hydroxymanzamine A diAc]
- MIC ([1]; M. tuberculosis H37Rv): <6.25 µg/mL
- % Inhibition [1, 19]: 95%

Compound: (+)-8-Hydroxymanzamine A
- MIC ([1]; M. tuberculosis H37Rv): <6.25 µg/mL
- % Inhibition [1, 19]: 100%
- Cytotoxicity TC50 [2]: 320 ng/mL
- D6 Clone IC50 ([4]; P. falciparum D6 clone): 6.0 ng/mL
- W2 Clone IC50 ([5]; P. falciparum W2 clone): 8.0 ng/mL
- cytotoxicity, reported [18]: inactive

Compound: O=C1CCCN2[C@H]3[C@]45CN6CCCC/C=C\CC[C@]3(C=C(c3nccc7c3[nH]c3c(O)cccc37)[C@H]4CC6)O[C@@]2(CC1)C5 [8-HOMA Metabolite 1]
- % Inhibition [1, 19]: 98%
- MIC [1, 22]: < 12.5 µg/mL
- cytotoxicity relative to the parent compounds [8]: less cytotoxic than the parent compounds

Compound: CO[C@H]1/C=C/O[C@@]2(C)Oc3c(C)c(O)c4c(O)c(c(/C=N/N5CCN(C)CC5)c(O)c4c3C2=O)NC(=O)/C(C)=C\C=C\[C@H](C)[C@H](O)[C@@H](C)[C@@H](O)[C@@H](C)[C@H](OC(C)=O)[C@@H]1C [Rifampin, reference compound]
- % Inhibition [1]: 100%
- MIC ([1]; Mycobacterium tuberculosis, H37RV): 0.25 µg/mL (≈ 0.304 µM)

Compound: O[C@]12C=C(c3nccc4c3[nH]c3ccccc34)[C@@H]3CCN(CCCC/C=C\CC1)C[C@@]31CC/C=C\CCCCN[C@@H]12 [Manzamine J]
- % Inhibition [1, 19]: 99%
- MIC [1, 22]: < 12.5 µg/mL

— patent US6900195B2, “Manzamines for treatment of drug resistant infection” (The University of Mississippi, priority 2000, dated 2005)
